Laboratory results published in PMC12143348, “Rapid and reversible fluorescent probe enables repeated snapshot imaging of AMPA receptors during synaptic plasticity” (Science Advances, 2025).

Molecular target: T1, GluA2flip(R) + GSG1L (Mus musculus, UniProt P23819, DEL765-802/Q607R)
T1 construct: expressed in transfected cells; host or cells: HEK293T
Experiment: Concentration-dependent binding of PFQX1(AF488) to GluA2flip(R) expressed with GSG1L in HEK293T cells
Details: n = 3–4, read-out: Kd / Affinity of PFQX1(AF488) to GluA2flip(R) with GSG1L
Procedure: HEK293T cells were cotransfected with plasmids for AMPAR [5′UTR-GluA1^flip(R)-3′UTR, GluA2^flip(Q)-3′UTR, GluA3^flip(Q) (Y454A/R461G), and GluA4^flip(Q)], kainate receptor [GluK2(Q)], auxiliary subunits, or the control vector and transfection marker (EFGP-F or mCherry-F). Fluorophore-ligand conjugates were diluted in Hepes-buffered saline (HBS) buffer [20 mM Hepes (pH 7.4), 107 mM NaCl, 6 mM KCl, 1.2 mM MgSO4, 2 mM CaCl2, and 11.5 mM glucose] and added to the cells. Confocal live imaging was performed with LSM900 (Carl Zeiss) equipped with a 63×, numerical aperture (NA) = 1.4 oil-immersion objective. Fluorescence images were acquired by excitation at 405, 488, 561, or 640 nm derived from diode lasers.
For evaluating the concentration dependency of fluorophore-ligand conjugates, 0.1 nM probe in HBS was added to the dish. Then, probes in HBS were added stepwise to the dish to a final concentration of 0.3, 1, 3, 10, 30, 100, 300, 1000, and 3000 nM. Cell surface fluorescence intensity was quantified from the line scans of transfection marker positive cells and calculated with subtraction of background by ZEN blue software (Carl Zeiss). […]
(A) Concentration-dependent binding of PFQX1(AF488) to GluA2 flip(R) expressed with GSG1L or TARP γ7. […] (B) The surface intensity of PFQX1(AF488) was quantified. […]

T1 sequence (P23819 with tags, fused parts or gaps isoform P23819-4 Q607R/DEL765-802): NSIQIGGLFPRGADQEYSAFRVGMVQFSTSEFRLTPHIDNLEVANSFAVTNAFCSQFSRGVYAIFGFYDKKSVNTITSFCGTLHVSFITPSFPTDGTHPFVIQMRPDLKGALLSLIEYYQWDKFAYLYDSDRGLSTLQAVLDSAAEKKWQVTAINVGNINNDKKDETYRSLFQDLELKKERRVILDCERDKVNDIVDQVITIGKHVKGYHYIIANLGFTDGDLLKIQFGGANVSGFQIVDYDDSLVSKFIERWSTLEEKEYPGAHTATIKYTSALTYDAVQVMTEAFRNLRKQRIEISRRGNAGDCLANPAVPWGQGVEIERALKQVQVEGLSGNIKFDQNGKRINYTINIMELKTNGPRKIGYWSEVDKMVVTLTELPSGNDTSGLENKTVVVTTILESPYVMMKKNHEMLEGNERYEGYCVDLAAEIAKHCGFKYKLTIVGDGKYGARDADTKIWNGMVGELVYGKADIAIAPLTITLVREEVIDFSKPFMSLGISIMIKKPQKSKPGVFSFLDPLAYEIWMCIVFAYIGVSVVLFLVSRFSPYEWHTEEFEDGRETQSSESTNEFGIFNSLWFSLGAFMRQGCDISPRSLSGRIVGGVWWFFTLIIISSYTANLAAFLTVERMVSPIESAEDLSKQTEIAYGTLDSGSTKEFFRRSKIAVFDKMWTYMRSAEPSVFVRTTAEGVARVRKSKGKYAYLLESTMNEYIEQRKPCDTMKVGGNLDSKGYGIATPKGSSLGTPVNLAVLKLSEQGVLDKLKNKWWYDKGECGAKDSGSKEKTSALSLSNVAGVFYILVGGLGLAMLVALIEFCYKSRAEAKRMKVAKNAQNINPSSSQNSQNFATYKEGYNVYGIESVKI
T1 sequence (D3Z7H4 whole entry partner): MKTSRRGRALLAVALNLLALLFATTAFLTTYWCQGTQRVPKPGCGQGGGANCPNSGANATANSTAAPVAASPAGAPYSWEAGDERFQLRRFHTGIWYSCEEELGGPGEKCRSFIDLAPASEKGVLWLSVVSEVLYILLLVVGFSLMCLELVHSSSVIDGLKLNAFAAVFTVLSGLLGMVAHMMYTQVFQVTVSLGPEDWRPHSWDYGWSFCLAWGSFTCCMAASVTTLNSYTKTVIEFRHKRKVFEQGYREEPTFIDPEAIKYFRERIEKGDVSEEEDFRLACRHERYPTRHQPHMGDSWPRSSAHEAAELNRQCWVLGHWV

Kd: 34.5 ± 12.4 nM
SMILES: N=c1ccc2c(-c3ccc(C(=O)NCc4ccn(-c5cc6c(cc5C(F)(F)F)[nH]c(=O)c(=O)n6CC(=O)O)c4)cc3C(=O)O)c3ccc(N)c(S(=O)(=O)O)c3oc-2c1S(=O)(=O)O [PFQX1(AF488)]
